One experiment has as its system COLO205 cells. Briefly: Cell proliferation assay (COLO205), Cell-titer Glo. The experiment is classed as cell-based. The following applies: Homo sapiens, COLO 205, 120 h incubation. On the procedure:
COLO205 cells were spread into a 96-well plate at 135 μL/well at 2000 cells. After incubating overnight, compound solutions of gradient concentration was prepared, and added 15 μL of DMSO solution of the test compound of each concentration to the cells of each well. The final concentration of the compound was 30000, 10000, 3333.3, 1111.1, 370.4, 123.5, 41.2, 13.7, 4.6, 0 nM (the final concentration of DMSO was 0.5%). 5% CO2 was incubated for 120 h at 37° C. 50 μL of Cell-titer Glo working solution was added to each well, shaked and mixed, and incubated at room temperature for 10 minutes. The multi-functional microplate reader read the luminescence value, and converted the luminescence value reading into inhibition percentage. Inhibition percentage=(maximum value−reading)/(maximum value−minimum value)*100.
The “maximum value” was the DMSO control, the “minimum value” indicates the cell-free control group.
(§1) Graphpad Prism software was used to perform curve fitting and obtain IC50 value.

The test system of another experiment is HCT 116 cells. The experiment is described as follows: Cell proliferation assay (HCT 116), Cell-titer Glo. Particulars: Homo sapiens, 120 h incubation. The experiment is classed as cell-based. How it is done:
The HCT 116 cells were paved in a 96-well plate at 1200 cells, 160 μL/well. After incubating overnight, the compound solutions of gradient concentration was prepared, and 40 μL of DMSO solution of the test compound of each concentration was added to the cells of each well. The final concentration of the compound was 30000, 10000, 3333.3, 1111.1, 370.4, 123.5, 41.2, 13.7, 4.6, 0 nM (the final concentration of DMSO was 0.5%). 5% CO2 was incubated for 120 h at 37° C. 50 μL of Cell-titer Glo working solution was added to each well, shaked and mixed, and incubated at room temperature for 10 minutes. The multi-functional microplate reader read the luminescence value, and converted the luminescence value reading into inhibition percentage. Inhibition percentage=(maximum value−reading)/(maximum value−minimum value)*100.
The “maximum value” was the DMSO control, the “minimum value” indicated the cell-free control group.
as §1

The next experiment has as its target ERK2 (Homo sapiens, UniProt P28482). The experiment is described as follows: Kinase assay (Caliper, FAM-labeled peptide), ERK2. The experiment is classed as biochemical. The method, boiled down: (§2)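 Kinase preincubated 10 min at room temperature with serially diluted compound before FAM-labeled peptide plus ATP added; reaction run at 28 °C, then stopped. Substrate conversion read by Caliper mobility shift, normalized to DMSO and low controls, curve-fitted for IC50.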

The target in a further experiment is ERK1 (Homo sapiens, UniProt P27361). The experiment is described as follows: Kinase assay (Caliper, FAM-labeled peptide), ERK1. The experiment is classed as biochemical. The method, boiled down: as §2
ERK1, sequence (P27361 whole entry): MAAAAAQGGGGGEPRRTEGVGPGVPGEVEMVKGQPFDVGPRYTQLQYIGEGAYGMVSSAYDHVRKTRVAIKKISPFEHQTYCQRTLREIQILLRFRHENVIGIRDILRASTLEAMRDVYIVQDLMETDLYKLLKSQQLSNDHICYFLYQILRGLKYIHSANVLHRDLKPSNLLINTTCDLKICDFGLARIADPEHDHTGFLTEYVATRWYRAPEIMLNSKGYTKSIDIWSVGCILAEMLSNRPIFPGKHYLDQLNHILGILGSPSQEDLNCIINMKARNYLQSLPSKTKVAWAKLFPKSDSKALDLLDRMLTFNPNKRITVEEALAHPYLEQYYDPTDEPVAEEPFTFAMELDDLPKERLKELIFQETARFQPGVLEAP

ERK2, sequence (P28482 whole entry): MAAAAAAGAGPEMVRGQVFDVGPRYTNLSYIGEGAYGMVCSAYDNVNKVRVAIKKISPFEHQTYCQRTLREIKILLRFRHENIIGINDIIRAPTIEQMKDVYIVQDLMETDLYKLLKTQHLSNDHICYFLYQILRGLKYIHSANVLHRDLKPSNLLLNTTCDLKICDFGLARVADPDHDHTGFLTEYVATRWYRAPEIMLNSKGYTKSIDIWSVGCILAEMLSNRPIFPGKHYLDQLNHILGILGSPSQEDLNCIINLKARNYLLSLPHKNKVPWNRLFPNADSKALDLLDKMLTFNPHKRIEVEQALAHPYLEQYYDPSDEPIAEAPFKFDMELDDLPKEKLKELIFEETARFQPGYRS

Take `COC[C@H]1Cn2cc(-c3nc(NC4CCOCC4)ncc3Cl)cc2C(=O)N1Cc1cc(F)ccc1CO` [Example 130, (R)-7-(5-chloro-2-((tetrahydro-2h-pyran-4-yl)amino)pyrimidin-4-yl)-2-(5-fluoro-2-(hydroxymethyl)benzyl)-3-(methoxymethyl)-3.4-dihydropyrrolo[1,2-a] pyrazine-1(2H)-one]: the results for the IC50 with COLO205 cells and in the experiment on HCT 116 cells were 20.4 nM and 5.3 nM, respectively.
The molecule `Cn1nccc1Nc1cc(-c2cc3n(c2)CCN(Cc2cccc(F)c2)C3=O)c(Cl)cn1` [Example D9, 7-(5-chloro-2-((1-methyl-1h-pyrazole-5-yl)amino)pyridine-4-yl)-2-(3-fluorobenzyl)-3,4-dihydropyrrolo[1,2-a] pyrazine-1(2H)-one, reference compound] displayed an IC50 in the experiment on HCT 116 cells of 53.6 nM.
The molecule `Cn1nccc1Nc1cc(-c2cc3n(c2)CCN(Cc2ccc(F)cc2CO)C3=O)c(Cl)cn1` [Example 149, 7-(5-chloro-2-((1-methyl-1h-pyrazole-5-yl)amino)pyridine-4-yl)-2-(4-fluoro-2-(hydroxymethyl)benzyl)-3,4-dihydropyrrolo[1,2-a] pyrazine-1(2H)-one] came in with a half-maximal inhibitory concentration (IC50) in the experiment on HCT 116 cells of 21.2 nM.
With `Cn1nccc1Nc1cc(-c2cc3n(c2)CCN(Cc2cc(F)ccc2CO)C3=O)c(C(F)(F)F)cn1` [Example 161, (5-fluoro-2-(hydroxylmethyl)benzyl)-7-(2-((1-methyl-1h-pyrazole-5-yl)amino)-5-(trifluoromethyl)pyridin-4-yl)-3,4-dihydropyrrolo [1,2-a]pyrazine-1(2H)-one], the IC50 in the experiment on HCT 116 cells was found to be 24.6 nM.
`COC[C@H]1Cn2cc(-c3cc(Nc4ccnn4C)ncc3Cl)cc2C(=O)N1Cc1ccc(F)cc1CO` [Example 99, (R)-7-(5-chloro-2-((1-methyl-1h-pyrazole-5-yl)amino)pyridine-4-yl)-2-(4-fluoro-2-(hydroxymethyl)benzyl)-3-(methoxymethyl)-3,4-dihydropyrrolo[1,2-a] pyrazine-1(2H)-one]: the half-maximal inhibitory concentration (IC50) stood at 21.7 nM in the experiment with COLO205 cells and 18 nM in the experiment with HCT 116 cells.
Regarding `CC(C)Nc1cc(-c2cnc(C(=O)NCc3cc(F)ccc3CO)s2)c(Cl)cn1` [Example 2, 5-(5-Chloro-2-(isopropylamino)pyridin-4-yl)-N-(5-fluoro-2-(hydroxymethyl)benzyl)thiazole-2-formamide], the figures for the IC50 at ERK2, with COLO205 cells and on ERK1 were 0.9 nM, 77.5 nM and 1 nM, respectively.
Molecule `COC[C@H]1Cn2cc(-c3cc(Nc4ccnn4C(F)F)ncc3Cl)cc2C(=O)N1Cc1cc(F)ccc1CO` [Example 54, (R)-7-(5-chloro-2-((1-(difluoromethyl)-1H-pyrazol-5-yl)amino)pyridin-4-yl)-2-(5-fluoro-2-(hydroxymethyl)benzyl)-3-(methoxymethyl)-3,4-dihydropyrrolo[1,2-a]pyrazine-1(2H)-ketone] gave an IC50 with HCT 116 cells of 16.2 nM.
On to `CC(C)Nc1cc(-c2cc3n(c2)CC2(COC2)CN(Cc2cc(F)c(F)cc2CO)C3=O)c(Cl)cn1` [Example 17], for which the IC50 against ERK2 turned out to be 0.4 nM; in the experiment on COLO205 cells, 25 nM; against ERK1, 0.47 nM.
With `COC[C@H]1Cn2cc(-c3cc(Nc4ccn(C)n4)ncc3Cl)cc2C(=O)N1Cc1cc(F)ccc1CO` [Example 86, (R)-7-(5-chloro-2-((1-methyl-1h-pyrazole-3-yl)amino)pyridine-4-yl)-2-(5-fluoro-2-(hydroxymethyl)benzyl)-3-(methoxymethyl)-3,4-dihydropyrrolo[1,2-a] pyrazine-1(2H)-one], the IC50 against ERK2 was determined as 0.8 nM; with COLO205 cells, 29.4 nM; against ERK1 it was 0.91 nM.
The molecule `Cn1nccc1Nc1cc(-c2cc3n(c2)CCN(Cc2cc(F)cc(F)c2)C3=O)c(Cl)cn1` [Example D10, 7-(5-chloro-2-((1-methyl-1h-pyrazole-5-yl)amino)pyridine-4-yl)-2-(3,5-difluorobenzyl)-3,4-dihydropyrrolo[1,2-a] pyrazine-1(2H)-one, reference compound] displayed an IC50 in the experiment on HCT 116 cells of 52.3 nM.
For `CC(C)Nc1cc(-c2cc3n(c2)CC2(COC2)CN(Cc2ccccc2CO)C3=O)c(Cl)cn1` [Example 6, 8′-(5-Chloro-2-(isopropylamino)pyridin-4-yl)-2′-(2-(hydroxymethyl)benzyl)-2′,3-dihydro-1′H,5′H-spiro[oxetane-3,4′-pyrrolo[1,2-a][1,4]diazepine]-1′-one], the figures for the concentration for half-maximal inhibition (IC50) at ERK2, in the experiment with COLO205 cells and against ERK1 were 0.5 nM, 9 nM and 0.8 nM, respectively.
With `Cc1cnc(Nc2ccnn2C)nc1-c1c[nH]c(C(=O)NCc2cc(F)ccc2CO)c1` [Example 22, N-(5-fluoro-2-(hydroxymethyl)benzyl)-4-(5-methyl-2-((1-methyl-1H-pyrazol-5-yl)amino)pyrimidin-4-yl)-1H-pyrrole-2-carboxamide], the IC50 on ERK2 stood at 0.34 nM; in the experiment on COLO205 cells, 35.3 nM; against ERK1, 0.43 nM.
`CC(C)Nc1cc(-c2cc3n(c2)CC2(CNC2)CN(Cc2ccccc2CO)C3=O)c(Cl)cn1` [Example 24, 8′-(5-Chloro-2-(isopropylamino)pyridin-4-yl)-2′-(2-(hydroxymethyl)benzyl)-2′,3′-dihydro-1′H,5′H-spiro[azetidine-3,4′-pyrrolo[1,2-a][1,4]diazepine]-1′-one]: the IC50 was 0.53 nM against ERK2, 50 nM with COLO205 cells and 0.65 nM against ERK1.
Regarding `CC(C)Nc1cc(-c2cc3n(n2)CC(CO)(CCl)CN(Cc2ccccc2CO)C3=O)c(Cl)cn1` (stereo not shown) [Example 8, 2-(5-Chloro-2-(isopropylamino)pyridin-4-yl)-7-(chloromethyl)-7-(hydroxymethyl)-5-(2-(hydroxymethyl)benzyl)-5,6,7,8-tetrahydro-4H-pyrazolo[1,5-a][1,4]diazepine-4-one], the IC50 at ERK2 worked out at 1.4 nM; in the experiment on COLO205 cells it was 36.1 nM; against ERK1 it was 1.3 nM.
`Cc1cnc(Nc2ccnn2C)nc1-c1cc2n(c1)CCN(Cc1cc(F)ccc1CO)C2=O` [Example 23, 2-(5-Fluoro-2-(hydroxymethyl)benzyl)-7-(5-methyl-2-((1-methyl-1H-pyrazol-5-yl)amino)pyrimidin-4-yl)-3,4-dihydropyrrolo[1,2-a]pyrazine-1(2H)-one]: the IC50 against ERK2 was 0.48 nM; with COLO205 cells it was 18.7 nM; against ERK1 it was 0.42 nM.
As to `CC(C)Nc1cc(-c2cc3n(c2)CC2(COC2)CN(Cc2ccc(F)cc2CO)C3=O)c(Cl)cn1` [Example 13], the IC50 at ERK2 stood at 0.89 nM; in the experiment with COLO205 cells, 50.8 nM; on ERK1, 0.74 nM.
With `CC(C)Nc1cc(-c2cc3n(c2)CCCN(Cc2ccccc2CO)C3=O)c(Cl)cn1` [Example 16, 8-(5-chloro-2-(isopropylamino)pyridin-4-yl)-2-(2-(hydroxylmethyl)benzyl)-2,3,4,5-tetrahydro-1h-pyrrolo [1,2-a][1,4]diazepine-1-one], the concentration for half-maximal inhibition (IC50) against ERK2 worked out at 0.6 nM; in the experiment with COLO205 cells, 56 nM; on ERK1 it was 0.9 nM.
In turn, `COC[C@H]1Cn2cc(-c3cc(Nc4conc4C)ncc3Cl)cc2C(=O)N1Cc1cc(F)ccc1CO` [Example 83, (R)-7-(5-chloro-2-((3-methylisoxazole-4-yl)amino)pyridine-4-yl)-2-(5-fluoro-2-(hydroxymethyl)benzyl)-3-(methoxymethyl)-3,4-dihydropyrrolo[1,2-a] pyrazine-1(2H)-one] had an IC50 in the experiment with HCT 116 cells of 23 nM.
Take `CC(C)Nc1cc(-c2cc3n(c2)CC(CO)(CO)CN(Cc2ccccc2CO)C3=O)c(Cl)cn1` [Example 27]: the IC50 against ERK2 is 0.59 nM; in the experiment on COLO205 cells, 9.6 nM; on ERK1, 0.96 nM.
For `CC(C)Nc1cc(-c2cc3n(c2)CC(O)CN(Cc2cc(F)ccc2CO)C3=O)c(Cl)cn1` (stereo not shown) [Example 20, 8-(5-chloro-2-(isopropylamino)pyridin-4-yl)-2-(5-fluoro-2-(hydroxymethyl)benzyl)-4-hydroxy-2,3,4,5-tetrahydro-1h-pyrrolo [1,2-a][1,4]diazepine-1-one], in that order: 0.56 nM, 76.7 nM and 0.34 nM.
For the molecule `COC[C@H]1Cn2cc(-c3cc(N[C@H]4CC[C@H](O)CC4)ncc3Cl)cc2C(=O)N1Cc1cc(F)ccc1CO` [Example 71, (R)-7-(5-chloro-2-(((1R,4R)-4-hydroxycyclohexyl)amino)pyridine-4-yl)-2-(5-fluoro-2-(hydroxymethyl)benzyl)-3-(methoxymethyl)-3,4-dihydropyrrolo[1,2-a] pyrazine-1(2H)-one], the IC50 was 1.4 nM against ERK2, 27 nM with HCT 116 cells and 1.1 nM at ERK1.

(Values after patent US11466013B2 (Betta Pharmaceuticals Co., LTD, priority 2018, dated 2022).)
